Measurements reported in US9382218B2, “N-heteroaryl substituted aniline derivatives as HCV-antivirals” (priority 2013, dated 2016).

How the values were obtained:
Assay in all cases: microbe, parasite or virus in culture
[1] = test system: HCVpp GT-1a (pseudotyped HCV particles, E1/E2 of GT1a H77 strain); format: cell-based, Hepatitis C virus GT1a H77 strain; settings: Hepatitis C virus, 72 h, read-out: HCVpp GT-1a (EC50, M)
[2] = test system: HCVpp GT-1b (pseudotyped HCV particles, E1/E2 of GT1b Con1 strain); format: cell-based, Hepatitis C virus GT1b Con1 strain; settings: Hepatitis C virus, 72 h, read-out: HCVpp GT-1b (EC50, M)
[3] = test system: VSVpp (pseudotyped VSV G particles); format: cell-based; settings: Vesicular stomatitis virus, 72 h, read-out: VSVpp (EC50, M)

Row | Compound | EC50 [1] | EC50 [2] | EC50 [3]
1 | Nc1cc(Nc2cc(Cl)cc(Cl)c2)[nH]n1 [Compound 1, N^5-(3,5-Dichloro-phenyl)-1H-pyrazole-3,5-diamine] | 3.99e-05 M | 6.4e-05 M | ≥ 0.0001 M
2 | Nc1cc(Nc2cc(Cl)c(F)c(Cl)c2)[nH]n1 [Compound 2, N^5-(3,5-Dichloro-4-fluoro-phenyl)-1H-pyrazole-3,5-diamine] |  | 5.22e-05 M | 3.4e-05 M
3 | Cc1nnc(Nc2cc(Cl)cc(Cl)c2)o1 [Compound 3, (3,5-Dichloro-phenyl)-(5-methyl-[1,3,4]oxadiazol-2-yl)-amine] | 3.93e-05 M | 3.58e-05 M | ≥ 0.0001 M
4 | Nc1nc(Nc2cccc(C(F)(F)F)c2)no1 [Compound 4, N^3-(3-Trifluoromethyl-phenyl)-[1,2,4]oxadiazole-3,5-diamine] | 1.36e-06 M | 6.06e-06 M | > 0.0001 M
5 | Nc1noc(Nc2cc(Cl)cc(Cl)c2)n1 [Compound 5, N^5-(3,5-Dichloro-phenyl)-[1,2,4]oxadiazole-3,5-diamine] | 8.63e-06 M | 9.22e-06 M | 9.8e-06 M
6 | Nc1nc(Nc2cc(Cl)cc(Cl)c2)no1 [Compound 6, N^3-(3,5-Dichloro-phenyl)-[1,2,4]oxadiazole-3,5-diamine] | 3.55e-06 M | 1.03e-05 M | 8.6e-05 M
7 | Nc1nc(Nc2cc(Cl)cc(C(F)(F)F)c2)no1 [Compound 8, N^3-(3-Chloro-5-trifluoromethyl-phenyl)-[1,2,4]oxadiazole-3,5-diamine] |  | 9.03e-06 M | ≥ 0.0001 M
8 | CS(=O)(=O)Nc1cccc(-c2c(Cl)cc(Nc3nc(N)no3)cc2C(F)(F)F)c1 [Compound 9, N-[4′-(3-Amino-[1,2,4]oxadiazol-5-ylamino)-6′-chloro-2′-trifluoromethyl-biphenyl-3-yl]-methanesulfonamide] |  | 2.99e-06 M | 7.04e-06 M
9 | CS(=O)(=O)Nc1cccc(-c2c(Cl)cc(Nc3noc(N)n3)cc2C(F)(F)F)c1 [Compound 10, N-[4′-(5-Amino-[1,2,4]oxadiazol-3-ylamino)-6′-chloro-2′-trifluoromethyl-biphenyl-3-yl]-methanesulfonamide] |  | 1.53e-06 M | 9.87e-06 M
10 | Nc1cnc(Nc2cc(Cl)cc(Cl)c2)o1 [Compound 11, N^2-(3,5-Dichloro-phenyl)-oxazole-2,5-diamine] | 2.93e-05 M |  | ≥ 0.0001 M
